Experimental data reported in US20090220528A1, “Stimulation of Toll-Like Receptors on T Cells” (THE TRUSTEES OF THE UNIVERISTY OF PENNSYLVANIA CNETER FOR …, priority 2005, published 2009).

Experiments:
Assay type in all cases: cell-based, mouse
[1] = tested on: activated CD4+ T cells; assay: Survival of activated CD4+ T cells treated with TLR ligands (7-AAD/annexin exclusion)
Description: All CD4^+ T cell activation was conducted in complete culture medium composed of RPMI 1640 (Life Technologies, Grand Island, N.Y.), 1.5 μM 2-ME (Sigma-Aldrich, St. Louis, Mo.), 50 μg/ml gentamicin (Life Technologies), and 10% FCS (Mediatech, Washington, D.C.) at 37° C. in 5% CO2. Purified CD4^+ T cells from either BALB/c, MyD88^−/−, or MyD88^+/+ wild-type control littermates were activated on 24-well plates (Costar, Cambridge, Mass.) coated with 1.0 μg/ml CD3ε monoclonal antibody (2C11; BD Biosciences) and 1.0 μg/ml CD28 monoclonal antibody (37.51; BD Biosciences) for 16 hours. In experiments with DO11.10 mice, 1 μg/ml of pOVA, a peptide derived from chicken albumin amino acid residues […] was added to 2×10^6/ml erythrocyte-depleted splenocyte and lymph node cell pools for 16 hours. Following pOVA-induced activation, CD4^+ T cell APC complexes were disrupted with 5 mM EDTA/PBS for 10 minutes at 25° C., washed twice in PBS, and purified with magnetic beads using the MACS CD4^+ T cell isolation kit as described elsewhere herein. Purity of activated DO11.10 CD4^+ T cells exceeded 96%. As described elsewhere herein, the remainder of the contaminants by FACS analysis were CD8^+ T cells, with APCs at <0.1% by RT-PCR.
(§1) Following activation, purified CD4^+ T cells were washed twice in PBS and replated in culture medium at 10^6/ml. Cultures were left untreated or treated with either TLR ligands and/or inhibitors for indicated times and concentrations. Following incubation, CD4^+ T cells were washed twice in PBS/2% FBS and stained with CD4-allophycocyanin monoclonal antibody and 7-aminoactinomycin D (7-AAD; BD PharMingen) or annexin (BD PharMingen) and survival was assessed by exclusion of either of these two stains. For absolute live cell counts 50,000 CD45.1^+ splenocytes labeled with anti-CD45.1-PE monoclonal antibody (A20; BD PharMingen) were also added to stained CD4^+ T cell sample FACS tubes just before FACS analysis. Live CD4^+ T cell counts were calculated by taking the ratio of the number of CD4^+CD45.1^−7-ADD^− events collected to the number CD45.1^+ events collected and multiplying by 50,000. Proliferation was measured by CFSE dye dilution as previously described (Wells et al., 1997 J. Clin. Invest. 100:3173).
TLR ligands directly promote the survival of several cell types including neutrophils, DC, and B cells (Lundqvist et al., 2002, Cancer Immunol. Immunother. 51:139; Sabroe et al., 2003, J. Immunol. 170:5268; Grillot et al., 1996, J. Exp. Med. 183:381; Grillot et al., 1996, J. Exp. Med. 183:381). Since it was observed that activated CD4^+ T cells also express TLRs and signal in response to TLR ligands, the next set of experiments were designed to assess whether TLR ligands could directly enhance survival of these cells. DO11.10 CD4^+ T cells, that encode a transgenic TCR specific for a peptide derived from chicken OVA (pOVA), were activated with pOVA-pulsed APCs for 16 hours ex vivo, purified by magnetic beads to remove all non-CD4^+ T cells, and replated in unsupplemented culture medium in the absence or presence of TLR ligands. Survival was then assessed 72 hours following activation (FIG. 3A). Poly(I:C) or CpG DNA induced increases of activated CD4^+ T cell survival from 38% to 71 and 73%, respectively.

[2] = tested on: activated CD4+ T cells; assay: Absolute live CD4+ T cell counts by FACS; settings: up to 72 hours following activation with plate-bound anti-CD3 plus anti-CD28; relative to untreated cultures (FIG. 3C)
Description: as §1
Since percentage survival measurements may not be reflective of viable CD4^+ T cell numbers in vitro, absolute live cell number counts were quantified for periods up to 72 hours following activation of FACS sorted CD4^+ T cells with plate-bound anti-CD3 plus anti-CD28 monoclonal antibodies (FIGS. 3C).

[3] = tested on: Foxp3+GFP+ and Foxp3-GFP- T cells; assay: Foxp3 expression (GFP reporter) and IL-6 production in Foxp3+ and Foxp3- T cells under stimulation
Description: In order to study the effect of stimulation conditions on Foxp3 expression, T cells were from mice having a reporter construct introduced into the FOXP3 locus (Betteli et al., 2006, Nature 441:235-238) by sorting cells based on the GFP-reporter construct. The reporter construct expresses both Fox3p and the fluorescent protein GFP. T cells that are Foxp3^− (i.e. GFP^−) and T cells that are Foxp3^+ (i.e. GFP^+) were isolated (FIG. 21A). Foxp3 expression was then assessed under different stimulation conditions, […]

## poly(I:C)
[1]; 72 hours following activation, DO11.10 CD4+ T cells activated with pOVA-pulsed APCs, purified, untreated 38% (FIG. 3A)
  activated CD4+ T cell survival: 71%
[1]; FIG. 3B, purified activated CD4+ T cells
  effect on activated CD4+ T cell survival (dose response): dose-dependent manner
[1]; T cell-depleted lymph node cells and splenocytes (APC) added
  activated CD4+ T cell survival in TLR ligand-treated cultures spiked with APCs: significantly increased dose-responsive survival
[2]
  live CD4+ T cell numbers: concordant increases
[3]; activated by anti-CD3 plus TLR ligand (FIG. 21B)
  Foxp3 expression in Foxp3+GFP+ cells (natural Tregs): maintained Foxp3 expression
[3]; stimulation with anti-CD3 and anti-CD28 antibodies and TGF-b, with additions (FIG. 22)
  Foxp3 expression in Foxp3-GFP- cells (non-regulatory T cells): augmented
